Where two headings read alike, the source gives them in different places. Peptide text beside a SMILES is read from it.
What was measured:
Type in all cases: biochemical
HDAC2 [1] = target: T1, HDAC2 (Homo sapiens, UniProt Q92769); assay: Initial HDAC2 IC50 estimate (BPS Biosciences HDAC fluorogenic assay kit); settings: Supplementary Dataset 2
T1 construct: purchased Reaction Biology Corporation (assay run by the CRO)
Method: Initial IC50 values were estimated using HDAC fluorogenic assay kits from BPS Biosciences (HDAC2, HDAC4, and HDAC6) following the protocol described in the kit. All the measures were performed in duplicates or triplicates. These measurements were done either on full range of concentrations (1:10 dilution from 1 µM to 100 pM) or on two concentrations only (20 nM and 200 nM) as an estimate of the range. […] Source Data are provided as a Source Data file.

HDAC3 = target: T2, HDAC3 (Homo sapiens, UniProt O15379); assay: HDAC3 inhibition, full IC50 measurement (Reaction Biology; fluorogenic p53 peptide RHKK(Ac)AMC); settings: t1
T2 construct: purchased Reaction Biology Corporation (assay run by the CRO)
Method: (§1) The assay was performed using 50 μM fluorogenic peptide from p53 residues 379-382 [RHKK(Ac)AMC] in a base reaction buffer of 50 mM Tris-HCl at pH 8.0, 137 mM NaCl, 2.7 mM KCl, 1 mM MgCl2, and freshly added 1 mg/ml BSA and 1% DMSO. Peptides were first dissolved in DMSO and then added to the reaction mixture with the enzyme using acoustic technique, enough to reach the desired concentration for that assay point. Peptide concentrations were calculated based on mass of lyophilized peptide and its molecular weight. The substrate was then added and incubated for 1 hour at 30 °C in a sealed container. After the incubation, developer was added to stop the reaction and develop color. Kinetic measurements were then performed for 20 min with Envision with 5 min intervals (Ex/Em = 360/460 nm). The endpoint after plateau was taken for IC50 measurement.
(§2) In cases where duplicate measures are used, average data is reported in the main text or Supplementary Tables.

HDAC1 = target: T3, HDAC1 (Homo sapiens, UniProt Q13547); assay: HDAC1 inhibition, full IC50 measurement (Reaction Biology; fluorogenic p53 peptide RHKK(Ac)AMC); settings: t1/t2 replicates
T3 construct: purchased Reaction Biology Corporation (assay run by the CRO)
Method: as §1, §2

HDAC6 = target: T4, HDAC6 (Homo sapiens, UniProt Q9UBN7); assay: HDAC6 inhibition, full IC50 measurement (Reaction Biology; fluorogenic p53 peptide RHKK(Ac)AMC); settings: t1
T4 construct: purchased Reaction Biology Corporation (assay run by the CRO)
T4 sequence (Q9UBN7 1-1215): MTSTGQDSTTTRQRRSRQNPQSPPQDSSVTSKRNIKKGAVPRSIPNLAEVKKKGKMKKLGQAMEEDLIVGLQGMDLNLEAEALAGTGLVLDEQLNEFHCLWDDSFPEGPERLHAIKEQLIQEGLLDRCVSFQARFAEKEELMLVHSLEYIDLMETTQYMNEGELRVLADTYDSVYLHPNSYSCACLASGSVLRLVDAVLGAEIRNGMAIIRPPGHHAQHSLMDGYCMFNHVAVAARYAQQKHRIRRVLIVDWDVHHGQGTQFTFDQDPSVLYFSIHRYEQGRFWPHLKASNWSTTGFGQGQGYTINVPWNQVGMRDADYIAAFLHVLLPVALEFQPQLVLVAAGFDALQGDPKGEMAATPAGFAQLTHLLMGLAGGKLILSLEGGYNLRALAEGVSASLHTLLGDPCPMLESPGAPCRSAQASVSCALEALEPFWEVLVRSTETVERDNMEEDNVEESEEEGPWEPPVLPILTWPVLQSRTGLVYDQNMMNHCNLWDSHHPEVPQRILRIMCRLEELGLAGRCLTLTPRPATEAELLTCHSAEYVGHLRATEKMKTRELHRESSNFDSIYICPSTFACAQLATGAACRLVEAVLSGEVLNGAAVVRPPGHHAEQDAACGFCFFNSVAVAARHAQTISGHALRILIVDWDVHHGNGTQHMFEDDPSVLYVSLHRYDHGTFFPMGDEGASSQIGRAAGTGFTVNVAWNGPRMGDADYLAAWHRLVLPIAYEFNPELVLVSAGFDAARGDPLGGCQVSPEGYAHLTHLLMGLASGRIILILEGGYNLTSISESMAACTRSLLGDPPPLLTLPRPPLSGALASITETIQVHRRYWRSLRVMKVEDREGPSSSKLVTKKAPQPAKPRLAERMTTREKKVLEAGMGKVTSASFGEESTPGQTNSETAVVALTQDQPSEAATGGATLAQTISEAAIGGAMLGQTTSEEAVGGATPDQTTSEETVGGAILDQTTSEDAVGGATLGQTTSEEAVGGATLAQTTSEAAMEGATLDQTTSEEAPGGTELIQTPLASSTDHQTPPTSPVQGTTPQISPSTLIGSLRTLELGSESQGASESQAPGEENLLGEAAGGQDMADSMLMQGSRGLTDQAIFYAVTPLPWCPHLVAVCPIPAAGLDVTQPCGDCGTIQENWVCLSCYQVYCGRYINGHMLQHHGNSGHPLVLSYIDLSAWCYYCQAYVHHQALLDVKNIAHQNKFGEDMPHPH
Method: as §1, §2

HDAC2 [2] = target: T1, HDAC2; assay: HDAC2 inhibition, full IC50 measurement (Reaction Biology; fluorogenic p53 peptide RHKK(Ac)AMC); settings: t1
Method: as §1, §2

HDAC8 = target: T5, HDAC8 (Homo sapiens, UniProt Q9BY41); assay: HDAC8 inhibition, full IC50 measurement (Reaction Biology; fluorogenic p53 peptide RHKK(Ac)AMC); settings: t1/t2 replicates
T5 construct: purchased Reaction Biology Corporation (assay run by the CRO)
T5 sequence (Q9BY41 1-377): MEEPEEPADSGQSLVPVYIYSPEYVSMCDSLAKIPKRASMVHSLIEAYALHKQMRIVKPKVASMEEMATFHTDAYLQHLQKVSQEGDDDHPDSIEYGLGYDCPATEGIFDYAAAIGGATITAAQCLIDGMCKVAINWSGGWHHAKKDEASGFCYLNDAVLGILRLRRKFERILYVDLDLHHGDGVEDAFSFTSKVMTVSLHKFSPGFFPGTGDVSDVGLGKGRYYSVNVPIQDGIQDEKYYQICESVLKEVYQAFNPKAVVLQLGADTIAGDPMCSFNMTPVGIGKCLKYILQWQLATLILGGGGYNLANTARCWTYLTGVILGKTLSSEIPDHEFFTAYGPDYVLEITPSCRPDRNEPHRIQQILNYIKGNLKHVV
Method: as §1, §2

T1 sequence (Q92769 whole entry): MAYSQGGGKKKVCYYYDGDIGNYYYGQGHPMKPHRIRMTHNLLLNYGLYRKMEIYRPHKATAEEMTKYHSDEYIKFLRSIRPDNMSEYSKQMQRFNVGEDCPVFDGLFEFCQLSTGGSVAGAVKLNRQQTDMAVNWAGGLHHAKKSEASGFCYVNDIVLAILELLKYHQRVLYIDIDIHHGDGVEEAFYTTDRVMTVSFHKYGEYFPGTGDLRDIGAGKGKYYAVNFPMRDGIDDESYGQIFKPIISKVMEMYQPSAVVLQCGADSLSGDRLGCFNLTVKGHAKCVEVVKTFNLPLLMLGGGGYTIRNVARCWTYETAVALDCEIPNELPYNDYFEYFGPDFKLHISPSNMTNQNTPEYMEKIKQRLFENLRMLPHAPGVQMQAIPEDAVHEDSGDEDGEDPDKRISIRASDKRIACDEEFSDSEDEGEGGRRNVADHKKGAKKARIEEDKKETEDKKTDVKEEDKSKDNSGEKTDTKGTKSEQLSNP
T2 sequence (O15379 whole entry): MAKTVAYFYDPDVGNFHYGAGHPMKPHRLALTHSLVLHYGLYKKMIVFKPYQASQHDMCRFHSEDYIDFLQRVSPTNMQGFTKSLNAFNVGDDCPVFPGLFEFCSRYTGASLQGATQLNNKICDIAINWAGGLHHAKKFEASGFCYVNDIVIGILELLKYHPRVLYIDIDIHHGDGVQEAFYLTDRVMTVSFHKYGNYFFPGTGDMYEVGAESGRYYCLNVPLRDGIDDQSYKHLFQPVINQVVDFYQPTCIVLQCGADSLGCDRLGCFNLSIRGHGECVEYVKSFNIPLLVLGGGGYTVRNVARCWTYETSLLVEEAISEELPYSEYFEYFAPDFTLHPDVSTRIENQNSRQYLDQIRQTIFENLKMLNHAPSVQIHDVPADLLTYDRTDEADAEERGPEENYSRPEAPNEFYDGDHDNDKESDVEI
T2 sequence (Q9Y618 395-489 partner limits assumed): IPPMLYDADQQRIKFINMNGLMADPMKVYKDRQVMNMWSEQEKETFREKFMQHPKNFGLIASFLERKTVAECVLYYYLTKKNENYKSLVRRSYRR
T3 sequence (Q13547 whole entry): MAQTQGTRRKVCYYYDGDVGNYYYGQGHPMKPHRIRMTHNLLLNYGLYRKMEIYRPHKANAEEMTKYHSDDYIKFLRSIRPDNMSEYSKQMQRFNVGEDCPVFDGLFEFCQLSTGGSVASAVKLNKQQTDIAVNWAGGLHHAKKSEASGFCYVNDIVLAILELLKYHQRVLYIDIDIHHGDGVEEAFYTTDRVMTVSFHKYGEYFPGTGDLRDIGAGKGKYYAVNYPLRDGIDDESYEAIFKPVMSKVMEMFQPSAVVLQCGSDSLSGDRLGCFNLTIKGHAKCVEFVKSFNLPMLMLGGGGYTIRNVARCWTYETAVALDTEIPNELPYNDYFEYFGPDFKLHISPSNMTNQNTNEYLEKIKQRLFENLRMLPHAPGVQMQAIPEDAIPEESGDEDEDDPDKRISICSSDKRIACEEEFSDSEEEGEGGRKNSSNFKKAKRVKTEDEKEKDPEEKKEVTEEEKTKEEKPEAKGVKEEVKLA

CCCC[C@@H]1NC(=O)[C@H](CCCCCS)NC(=O)[C@H](CCc2ccccc2)NC(=O)[C@H](C)NC(=O)[C@@H]2CCCN2C(=O)[C@@H](CC(=O)O)NC(=O)[C@@H](CO)NC(=O)[C@H](Cc2c[nH]c3ccccc23)NC(=O)[C@@H](CO)NC1=O [des3.7.0, SHA-Nlu-dSer-Trp-dSer-dAsp-Pro-Ala-C27] (HELM PEPTIDE1{[O=C([C@H](CCCCCS)N[*:1])[*:2]].[Nle].[dS].W.[dS].[dD].P.A.[O=C([C@H](CCc1ccccc1)N[*:1])[*:2]]}$PEPTIDE1,PEPTIDE1,1:R1-9:R2$$$V2.0)
IC50 (HDAC2 [1]; read-out: HDAC2 activity (initial activity)): > 1 µM

C[C@H]1NC(=O)[C@H](CCCNC(=N)N)NC(=O)[C@@H](CC(N)=O)NC(=O)[C@@H](CC(N)=O)NC(=O)[C@H](CCC(=O)O)NC(=O)[C@@H](CC(=O)O)NC(=O)[C@@H](CC(N)=O)NC(=O)[C@H](CCCCCS)NC1=O [des1.3.0, SHA-dAsn-dAsp-Glu-dAsn-dAsn-Arg-dAla] (HELM PEPTIDE1{E.[dN].[dN].R.[dA].[O=C([C@H](CCCCCS)N[*:1])[*:2]].[dN].[dD]}$PEPTIDE1,PEPTIDE1,1:R1-8:R2$$$V2.0)
IC50 (HDAC2 [1]; HDAC2 activity (initial activity)): 1 µM

NCCCC[C@@H]1NC(=O)[C@@H]2C[C@@H](O)CN2C(=O)[C@H](CC(N)=O)NC(=O)[C@H](CCCCCS)NC(=O)CNC(=O)[C@H](Cc2c[nH]c3ccccc23)NC(=O)[C@@H](CCCCN)NC(=O)[C@H](CCC(N)=O)NC1=O [des1.1.2, SHA-Asn-Hpr-Lys-Gln-dLys-Trp-Gly] (HELM PEPTIDE1{G.[O=C([C@H](CCCCCS)N[*:1])[*:2]].N.[Hyp].K.Q.[dK].W}$PEPTIDE1,PEPTIDE1,1:R1-8:R2$$$V2.0)
HDAC3 activity raw data (signal) (HDAC3; Conc. 1.00E-05 M): 22366 | HDAC3 activity raw data (signal) (HDAC3; Conc. 1.11E-06 M): 160146 | HDAC3 activity raw data (signal) (HDAC3; Conc. 1.23E-07 M): 601268 | HDAC3 activity raw data (signal) (HDAC3; Conc. 1.37E-08 M): 1087451 | HDAC3 activity raw data (signal) (HDAC3; Conc. 1.52E-09 M): 1408573 | HDAC3 activity raw data (signal) (HDAC3; Conc. 3.33E-06 M): 60464 | HDAC3 activity raw data (signal) (HDAC3; Conc. 3.70E-07 M): 337153 | HDAC3 activity raw data (signal) (HDAC3; Conc. 4.12E-08 M): 888364 | HDAC3 activity raw data (signal) (HDAC3; Conc. 4.57E-09 M): 1250419 | HDAC3 activity raw data (signal) (HDAC3; Conc. 5.08E-10 M): 1404307 | HDAC1 activity raw data (signal) (HDAC1; peptide conc. 1.00E-05 M): 76959 | HDAC1 activity raw data (signal) (HDAC1; peptide conc. 1.11E-06 M): 410794 | HDAC1 activity raw data (signal) (HDAC1; peptide conc. 1.23E-07 M): 886094 | HDAC1 activity raw data (signal) (HDAC1; peptide conc. 1.37E-08 M): 1048348 | HDAC1 activity raw data (signal) (HDAC1; peptide conc. 1.52E-09 M): 1178275 | HDAC1 activity raw data (signal) (HDAC1; peptide conc. 3.33E-06 M): 193861 | HDAC1 activity raw data (signal) (HDAC1; peptide conc. 3.70E-07 M): 669526 | HDAC1 activity raw data (signal) (HDAC1; peptide conc. 4.12E-08 M): 1039919 | HDAC1 activity raw data (signal) (HDAC1; peptide conc. 4.57E-09 M): 1106752 | HDAC1 activity raw data (signal) (HDAC1; peptide conc. 5.08E-10 M): 1177089 | HDAC6 activity raw data (signal) (HDAC6; Conc. 1.00E-05 M): 10576 | HDAC6 activity raw data (signal) (HDAC6; Conc. 1.11E-06 M): 35009 | HDAC6 activity raw data (signal) (HDAC6; Conc. 1.23E-07 M): 150676 | HDAC6 activity raw data (signal) (HDAC6; Conc. 1.37E-08 M): 391207 | HDAC6 activity raw data (signal) (HDAC6; Conc. 1.52E-09 M): 551447 | HDAC6 activity raw data (signal) (HDAC6; Conc. 3.33E-06 M): 16992 | HDAC6 activity raw data (signal) (HDAC6; Conc. 3.70E-07 M): 72135 | HDAC6 activity raw data (signal) (HDAC6; Conc. 4.12E-08 M): 256776 | HDAC6 activity raw data (signal) (HDAC6; Conc. 4.57E-09 M): 497632 | HDAC6 activity raw data (signal) (HDAC6; Conc. 5.08E-10 M): 597163 | HDAC2 activity raw data (signal) (HDAC2 [2]; Conc. 1.00E-05 M): 101836 | HDAC2 activity raw data (signal) (HDAC2 [2]; Conc. 1.11E-06 M): 502310 | HDAC2 activity raw data (signal) (HDAC2 [2]; Conc. 1.23E-07 M): 836305 | HDAC2 activity raw data (signal) (HDAC2 [2]; Conc. 1.37E-08 M): 962979 | HDAC2 activity raw data (signal) (HDAC2 [2]; Conc. 1.52E-09 M): 1015460 | HDAC2 activity raw data (signal) (HDAC2 [2]; Conc. 3.33E-06 M): 281419 | HDAC2 activity raw data (signal) (HDAC2 [2]; Conc. 3.70E-07 M): 724069 | HDAC2 activity raw data (signal) (HDAC2 [2]; Conc. 4.12E-08 M): 1007771 | HDAC2 activity raw data (signal) (HDAC2 [2]; Conc. 4.57E-09 M): 1082856 | HDAC2 activity raw data (signal) (HDAC2 [2]; Conc. 5.08E-10 M): 1067045 | HDAC8 activity raw data (signal) (HDAC8; peptide conc. 1.00E-05 M): 21213376 | HDAC8 activity raw data (signal) (HDAC8; peptide conc. 1.11E-06 M): 37632401 | HDAC8 activity raw data (signal) (HDAC8; peptide conc. 1.23E-07 M): 42211938 | HDAC8 activity raw data (signal) (HDAC8; peptide conc. 1.37E-08 M): 48061782 | HDAC8 activity raw data (signal) (HDAC8; peptide conc. 1.52E-09 M): 52470288 | HDAC8 activity raw data (signal) (HDAC8; peptide conc. 3.33E-06 M): 31972513 | HDAC8 activity raw data (signal) (HDAC8; peptide conc. 3.70E-07 M): 43240252 | HDAC8 activity raw data (signal) (HDAC8; peptide conc. 4.12E-08 M): 47347914 | HDAC8 activity raw data (signal) (HDAC8; peptide conc. 4.57E-09 M): 49471078 | HDAC8 activity raw data (signal) (HDAC8; peptide conc. 5.08E-10 M): 54514203

Source: publication PMC8185074, “Anchor extension: a structure-guided approach to design cyclic peptides targeting enzyme active sites” (Nature Communications, 2021)
